“Also recorded” adds a separate entry of the source. Read-outs that look alike come from different tables or passages of the source.
How the values were obtained:
[1] = cited from earlier work
group of 6 to 8 testers = test: Tasting of trans-pellitorin in 11 wt. % sugar solution by a group of testers; format: in vivo; conditions: for sensory impression on tasting: approximately 5 ml swallowed
Procedure: The trans-pellitorin was dissolved in ethanol and the ethanolic solution was then diluted with an 11 wt. % sugar solution (final concentration: c). For tasting, respectively approximately 5 ml of the sugar solution was respectively swallowed.

C/C=C/C=C\CC/C=C/C(=O)NCC(C)C [spilanthol, 2E,6Z,8E-decatrienoic acid-N-isobutylamide, reference compound]
sensory impression ([1]; Lebensm.-Wiss. U.-Technol. 1992, 25, 417-421): strongly salivation inducing and tingly or prickly; also recorded: spicy-hot and strongly numbing as well as an astringent

CCCCC/C=C/C=C/C(=O)NCC(C)C [trans-pellitorin, 2E,4E-decadienoic acid-N-isobutylamide]
sensory impression on tasting (group of 6 to 8 testers; c=10 ppm in 11 wt. % sugar solution): salivation inducing, slightly prickly, not spicy hot | sensory impression on tasting (group of 6 to 8 testers; c=20 ppm in 11 wt. % sugar solution): salivation inducing, slightly numbing, slightly fatty, weakly fruity, prickly, persistent, not spicy hot | concentration in the final product at which a saliva inducing effect only is observed, no additional sensory impressions (group of 6 to 8 testers; final product, e.g. finished preparation): below 20 ppm | sensory impression in taste research (group of 6 to 8 testers; taste research, general statement): pleasant saliva-inducing and slightly prickly sensory impression, with relatively prolonged effect | sensory impression ([1]; J. Agric. Food Chem. 1981, 29, 115, Fitoterapia 2001, 72, 197): primarily numbing | sensory impression on tasting in the pure state ([1]; pure state, J. Am. Chem. Soc. 1953, 75, 2584-2586): besides an elevated saliva flow, a strong burning effect on the tongue

From US8063107B2, “Use of trans-pellitorin as flavor substance” (Symrise AG, priority 2002, dated 2011)
